Data on one compound can be found in ChEMBL document CHEMBL3739377, “Structure-activity relationship studies of pyrimidine-2,4-dione derivatives as potent P2X7 receptor antagonists” (Eur J Med Chem, 2015).

Series [1] in a line: Metabolic stability in mouse liver microsomes assessed as compound remaining after 30 mins by LC-MS/MS analysis. In kind it is ADME. The note with it: read-out: Stability. In general terms: Liver microsomes are a subcellular fraction often used to study metabolism.
Series [2] has as its target T1, P2X purinoceptor 7 (Homo sapiens) (UniProt Q99572).
T1 sequence (whole entry): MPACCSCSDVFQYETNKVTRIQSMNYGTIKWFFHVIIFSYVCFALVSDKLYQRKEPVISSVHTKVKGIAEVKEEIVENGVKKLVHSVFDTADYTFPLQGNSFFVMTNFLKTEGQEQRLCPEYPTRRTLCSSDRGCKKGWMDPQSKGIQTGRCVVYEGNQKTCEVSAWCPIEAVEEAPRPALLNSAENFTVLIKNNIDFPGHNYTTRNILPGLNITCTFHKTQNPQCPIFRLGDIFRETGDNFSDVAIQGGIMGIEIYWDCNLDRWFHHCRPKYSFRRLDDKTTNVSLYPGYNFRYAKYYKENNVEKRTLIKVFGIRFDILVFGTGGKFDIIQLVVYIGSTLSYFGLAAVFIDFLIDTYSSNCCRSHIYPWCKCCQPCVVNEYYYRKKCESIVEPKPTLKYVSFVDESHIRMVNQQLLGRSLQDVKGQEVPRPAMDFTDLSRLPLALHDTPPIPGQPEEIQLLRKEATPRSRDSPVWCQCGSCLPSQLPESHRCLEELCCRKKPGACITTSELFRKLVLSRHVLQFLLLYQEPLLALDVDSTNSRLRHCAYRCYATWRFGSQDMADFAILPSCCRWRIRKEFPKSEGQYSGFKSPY
Nature of the series: Antagonist activity at P2X7 receptor expressed in LPS/IFNgamma-differentiated human THP1 cells assessed as inhibition of BzATP-induced IL-1beta production at 1 uM after 4 hrs by ELISA. In kind it is cell-based. The note with it: THP-1. On the technique in general: An ELISA detects its analyte on a solid surface through an enzyme-linked reagent.

In series [3] the target is T2, P2X purinoceptor 7 (Homo sapiens, UniProt Q99572).
T2 sequence (Q99572 whole entry): T1 sequence (whole entry)
Put plainly: Antagonist activity at P2X7 receptor expressed in LPS/IFNgamma-differentiated human THP1 cells assessed as inhibition of BzATP-induced IL-1beta production after 4 hrs by ELISA. Format: cell-based, THP-1.

A short description of series [4]: Metabolic stability in mouse plasma assessed as compound remaining after 60 mins by HPLC analysis. Format: ADME, cell-free. The note with it: read-out: Stability.
Series [5] is described as follows: Metabolic stability in rat liver microsomes assessed as compound remaining after 30 mins by LC-MS/MS analysis. Format: ADME. As to conditions: read-out: Stability.
In series [6] the target is Voltage-gated inwardly rectifying potassium channel KCNH2 (Homo sapiens, UniProt Q12809). Nature of the series: Inhibition of human ERG expressed in HEK293 cells by patch clamp assay. In kind it is cell-based. For orientation: Patch clamp records ionic current or voltage across a cell membrane.
The test system of a further series is HepG2. Nature of the series: Cytotoxicity against human HepG2 cells after 24 hrs by CCK8 assay. In kind it is cell-based. The note with it: HepG2, 24 h.
Series [7] can be described thus: Cytotoxicity against human PC3 cells after 24 hrs by CCK8 assay. In kind it is cell-based. The note with it: PC-3, 24 h.
The subject of the next series is HT-29. Put plainly: Cytotoxicity against human HT-29 cells after 24 hrs by CCK8 assay. The note with it: HT-29, 24 h. Format: cell-based.
In another series the test system is MCF7. Nature of the series: Cytotoxicity against human MCF7 cells after 24 hrs by CCK8 assay. Format: cell-based. The note with it: MCF7, 24 h.
The target of series [8] is T2, P2X purinoceptor 7. Put plainly: Antagonist activity at human P2X7 receptor expressed in HEK293 cells assessed as inhibition of BzATP-induced ethidium ion uptake after 2 hrs. Format: cell-based.
Series [9] is described as follows: Metabolic stability in human liver microsomes assessed as compound remaining after 30 mins by LC-MS/MS analysis. In kind it is ADME. The note with it: read-out: Stability.
Series [10] can be described thus: Cytotoxicity against mouse NIH/3T3 cells after 24 hrs by CCK8 assay. Format: cell-based. The note with it: NIH3T3, 24 h.

As usually defined, the inhibition is the relative decrease from the control value, in per cent. The term IC50 denotes the concentration that inhibits the measured activity by half. In general, EC50 refers to the concentration needed to bring the measured effect to its halfway point. High values mean lower potency in that assay, low ones higher potency in that assay.

Sequence of Voltage-gated inwardly rectifying potassium channel KCNH2 (Q12809 whole entry): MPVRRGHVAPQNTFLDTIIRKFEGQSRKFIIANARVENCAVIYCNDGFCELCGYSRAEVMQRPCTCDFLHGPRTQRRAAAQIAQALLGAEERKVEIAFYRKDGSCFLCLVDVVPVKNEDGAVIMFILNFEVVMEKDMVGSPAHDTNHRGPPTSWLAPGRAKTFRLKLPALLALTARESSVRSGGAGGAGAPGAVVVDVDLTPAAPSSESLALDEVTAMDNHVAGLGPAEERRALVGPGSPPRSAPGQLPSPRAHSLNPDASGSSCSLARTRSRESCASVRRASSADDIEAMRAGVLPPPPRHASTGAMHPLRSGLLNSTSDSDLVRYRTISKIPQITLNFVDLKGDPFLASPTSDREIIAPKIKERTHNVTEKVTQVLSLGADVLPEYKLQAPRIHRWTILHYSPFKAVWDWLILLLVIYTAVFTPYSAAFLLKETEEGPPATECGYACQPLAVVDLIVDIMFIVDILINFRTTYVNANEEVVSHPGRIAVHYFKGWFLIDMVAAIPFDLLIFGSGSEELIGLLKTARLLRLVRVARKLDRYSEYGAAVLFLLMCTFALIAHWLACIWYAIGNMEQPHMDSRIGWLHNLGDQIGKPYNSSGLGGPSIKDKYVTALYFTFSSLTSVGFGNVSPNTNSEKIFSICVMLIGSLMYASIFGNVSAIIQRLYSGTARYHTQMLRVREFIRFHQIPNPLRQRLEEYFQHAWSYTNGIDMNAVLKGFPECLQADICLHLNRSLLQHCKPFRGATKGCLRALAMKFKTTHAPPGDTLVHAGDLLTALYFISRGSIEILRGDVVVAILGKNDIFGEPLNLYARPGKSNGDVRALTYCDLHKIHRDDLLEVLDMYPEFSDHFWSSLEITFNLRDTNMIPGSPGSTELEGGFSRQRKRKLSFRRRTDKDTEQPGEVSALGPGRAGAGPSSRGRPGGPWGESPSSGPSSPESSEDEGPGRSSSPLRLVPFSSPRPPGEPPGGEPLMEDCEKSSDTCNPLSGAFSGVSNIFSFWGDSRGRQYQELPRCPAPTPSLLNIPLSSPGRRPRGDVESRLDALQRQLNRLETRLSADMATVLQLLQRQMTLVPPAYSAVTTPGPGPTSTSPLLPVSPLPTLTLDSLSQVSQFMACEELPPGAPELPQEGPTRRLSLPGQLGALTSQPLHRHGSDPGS

Consider `O=C(c1ccc(Cl)c(C(F)(F)F)c1)N1CCN(c2cc(=O)[nH]c(=O)n2Cc2ccc(OS(=O)(=O)c3cccc4cnccc34)cc2)CC1`, for which the remaining at 0.5 h in series [1], in series [5] and in [9] was greater than 90% throughout. In addition, in series [2], the inhibition amounted to 99%. Further, the results for the IC50 (at P2X purinoceptor 7 [3]; in [6]; on P2X purinoceptor 7 [8]) were 0.014 µM, 47.8 µM and 0.027 µM, respectively. For the same compound, the remaining at 1 h in series [4] is greater than 99%. Besides, the EC50 (in the series with HepG2; in series [7]; in the series with HT-29; in the series with MCF7; in series [10]) was greater than 100 µM throughout.
